Holding throughout (type): functional
In assay [1] the test system is Candida albicans. The experiment in a line: Antifungal activity against Candida albicans assessed as decrease in biofilm formation at 0.25 ug/ml. Further details: scale not given: the % may be the effect or the level left.
For assay [2], the system named is Candida albicans. The experiment in a line: Antifungal activity against […] gene deficient Candida albicans assessed as decrease in biofilm formation at 0.25 ug/ml. Also noted: scale not given: the % may be the effect or the level left.
Assay [3] has as its system Candida albicans. The assay is described as follows: Antifungal activity against Candida albicans grown as planktonic cell after 24 hrs by XTT reduction assay. Background: Tetrazolium dyes change colour on reduction, which living cells bring about.
Assay [4] relates to Candida albicans. The experiment in a line: Antifungal activity against […] gene deficient Candida albicans.
Assay [5] has as its system Candida albicans. The assay is described as follows: Antifungal activity against Candida albicans TDH3 overexpressing FKS1 gene.

Converted amounts (≈) assume the structure as drawn. Starred links: 1 amine or outer side, 2 acyl side, 3 side chain; linkers in the order of their positions; H or OH if unused. Positions of bridges follow the written chain, without caps; N, C: chain ends. Non-standard residues stand in square brackets, D forms with d. Residues, ends and D or L forms follow the SMILES beside them. *: point of attachment. pTerphenylCO(4''-OnC5H11) = CCCCCOc1ccc(-c2ccc(-c3ccc(C(=O)*)cc3)cc2)cc1; Orn(4R-OH,5R-OH) = O=C([C@H](C[C@@H](O)[C@@H](O)N[*:3])N[*:1])[*:2]; hTyr(3S-OH,4S-OH) = N[C@H](C(=O)O)[C@H](O)[C@@H](O)c1ccc(O)cc1; Pro(3S-OH,4S-Me) = C[C@H]1CN[C@H](C(=O)O)[C@H]1O; Hyp = O=C(O)[C@@H]1C[C@@H](O)CN1

As for `C[C@@H]1[C@H](O)[C@@H](C)/C=C/C=C/C=C/C=C/C=C/C=C/C=C/[C@H](O[C@@H]2O[C@H](C)[C@@H](O)[C@H](N)[C@@H]2O)C[C@@H]2O[C@](O)(C[C@@H](O)C[C@@H](O)[C@H](O)CC[C@@H](O)C[C@@H](O)CC(=O)O[C@H]1C)C[C@H](O)[C@H]2C(=O)O` [AMPHOTERICIN B], the Activity in assay [1] is recorded as 60%; in assay [2], 80%.

Turning to `CCCCCOc1ccc(-c2ccc(-c3ccc(C(=O)N[C@H]4C[C@@H](O)[C@@H](O)NC(=O)[C@@H]5[C@@H](O)[C@@H](C)CN5C(=O)[C@H]([C@@H](C)O)NC(=O)[C@H]([C@H](O)[C@@H](O)c5ccc(O)cc5)NC(=O)[C@@H]5C[C@@H](O)CN5C(=O)[C@H]([C@@H](C)O)NC4=O)cc3)cc2)cc1` [ANIDULAFUNGIN] ({pTerphenylCO(4''-OnC5H11)}-[Orn(4R-OH,5R-OH)]T[Hyp][hTyr(3S-OH,4S-OH)]T[Pro(3S-OH,4S-Me)]; lactam 1-C), the minimal inhibitory concentration (MIC) in assay [3], in assay [4] and in assay [5] was 0.01 µg/mL (≈ 0.00877 µM) in each case.

For the compound `Nc1nc(=O)[nH]cc1F` [FLUCYTOSINE], the minimal inhibitory concentration (MIC) in assay [3], in assay [4] and in assay [5] was 0.03 µg/mL (≈ 0.232 µM) throughout.

(Values after ChEMBL document CHEMBL1275255, “Role of Fks1p and matrix glucan in Candida albicans biofilm resistance to an echinocandin, pyrimidine, and polyene” (2010).)
